One molecule from publication PMC3389674, “Comparison of Soluble Guanylate Cyclase Stimulators and Activators in Models of Cardiovascular Disease Associated with Oxidative Stress” (Frontiers in Pharmacology, 2012) can be followed below.

This experiment concerns the target T1, rat sGC (Rattus norvegicus, UniProt P20595).
T1 sequence (P20595 1-619): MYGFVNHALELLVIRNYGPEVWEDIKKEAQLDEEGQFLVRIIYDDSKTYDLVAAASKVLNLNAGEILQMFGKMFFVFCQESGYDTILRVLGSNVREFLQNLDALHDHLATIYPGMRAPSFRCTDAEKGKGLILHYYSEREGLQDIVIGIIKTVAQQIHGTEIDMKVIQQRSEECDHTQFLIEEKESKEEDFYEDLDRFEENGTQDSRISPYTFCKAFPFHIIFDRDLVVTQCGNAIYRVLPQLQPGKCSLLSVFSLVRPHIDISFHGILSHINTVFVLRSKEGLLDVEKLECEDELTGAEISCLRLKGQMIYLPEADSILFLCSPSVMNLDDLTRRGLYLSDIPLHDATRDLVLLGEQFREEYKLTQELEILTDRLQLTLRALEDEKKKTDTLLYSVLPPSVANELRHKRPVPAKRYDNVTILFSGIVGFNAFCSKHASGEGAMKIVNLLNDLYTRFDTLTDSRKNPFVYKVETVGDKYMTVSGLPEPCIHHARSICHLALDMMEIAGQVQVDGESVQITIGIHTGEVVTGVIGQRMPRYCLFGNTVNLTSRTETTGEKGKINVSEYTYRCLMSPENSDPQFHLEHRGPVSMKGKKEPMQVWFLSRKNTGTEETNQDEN
T1 sequence (P19686 1-690 partner): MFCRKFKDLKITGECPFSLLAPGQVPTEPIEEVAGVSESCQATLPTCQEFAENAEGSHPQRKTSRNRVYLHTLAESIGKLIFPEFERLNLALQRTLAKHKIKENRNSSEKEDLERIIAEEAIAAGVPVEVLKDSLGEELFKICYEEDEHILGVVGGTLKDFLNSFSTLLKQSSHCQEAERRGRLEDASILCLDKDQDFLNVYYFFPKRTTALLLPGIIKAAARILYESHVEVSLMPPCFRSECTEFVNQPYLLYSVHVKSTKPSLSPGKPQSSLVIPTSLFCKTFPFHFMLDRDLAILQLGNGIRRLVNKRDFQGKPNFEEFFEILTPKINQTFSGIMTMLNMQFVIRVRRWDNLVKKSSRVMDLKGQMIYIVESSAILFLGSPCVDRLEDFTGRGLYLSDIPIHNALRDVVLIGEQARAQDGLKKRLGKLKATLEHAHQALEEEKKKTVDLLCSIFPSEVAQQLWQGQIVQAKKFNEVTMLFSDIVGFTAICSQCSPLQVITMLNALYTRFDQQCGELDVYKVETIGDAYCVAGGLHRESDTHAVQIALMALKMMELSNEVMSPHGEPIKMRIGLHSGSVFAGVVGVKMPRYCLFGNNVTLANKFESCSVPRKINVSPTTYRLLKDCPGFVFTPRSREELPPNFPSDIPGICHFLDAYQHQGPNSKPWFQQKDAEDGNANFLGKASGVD
Kind of experiment: primary cell-free rat sGC enzyme assay (cGMP formation). Type of experiment: biochemical. As to conditions: data not shown.

The structures appear in SMILES notation. pEC50: −log10 of the molar value.

Consider `Cc1cc(-c2ccc(OC(F)(F)F)cc2)ccc1COc1ccccc1-c1cccc(-n2ncc(C(=O)O)c2C(F)(F)F)n1` [GSK2181236A, 1-(6-{2-[({3-methyl-4′-[(trifluoromethyl)oxy]-4-biphenylyl}methyl)oxy]phenyl}-2-pyridinyl)-5-(trifluoromethyl)-1H-pyrazole-4-carboxylic acid], for which the pEC50 is 7.57.
